The results in this text go back to patent US5686486A, “4-hydroxy-benzopyran-2-ones and 4-hydroxy-cycloalkyl[b]pyran-2-ones useful to treat retroviral infections” (priority 1995, dated 1997).

Several values for one entry are separate records, joined by “and”; a condition that tells them apart may be missing. Equal entries are not always repeated.

For assay [1], the target named is T1, HIV-1 protease (Human immunodeficiency virus type 1 group M subtype B, UniProt P04585). In words: biochemical. As to conditions: for inhibition at 0.123 µM: read-out: HIV-1 Protease % Inhib, dose 0.123 uM; for inhibition at 0.37 µM: read-out: HIV-1 Protease % Inhib, dose 0.370 uM; for inhibition at 1.1 µM: read-out: HIV-1 Protease % Inhib, dose 1.100 uM; for inhibition at 3.3 µM: read-out: HIV-1 Protease % Inhib, dose 3.300 uM; for inhibition at 10 µM: read-out: HIV-1 Protease % Inhib, dose 10.000 uM; for inhibition at 30 µM: read-out: HIV-1 Protease % Inhib, dose 30.000 uM. The procedure, abridged:
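Percent inhibition derived from fluorescent cleavage product separated by filtration after streptavidin-bead capture of intact biotin/FITC substrate. Reaction: enzyme (10 μl, 0.1 μM stock) with substrate (20 μl, 0.2 μM stock) and compound, 1 h at room temperature in dark, pH 5.5 acetate buffer with 1.0 M NaCl and 0.05% NP-40.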

The target in assay [2] is T1, HIV-1 protease. In words: biochemical. As to conditions: read-out: HIV-1 FITC KI. The procedure, abridged: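 Enzyme (40 nM stock) and substrate (200 μM stock) incubated with inhibitor, 24–48 two-fold serial concentrations, for 90 min at room temperature, then quenched with avidin beads. Nonlinear least-squares analysis gives Ki; a known-Ki inhibitor validates each run.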

One may read the Ki as a measure of affinity in units of concentration, obtained from inhibition or displacement.

Consider `O=c1oc2c(c(O)c1[C@H](c1cccc(NS(=O)(=O)c3ccc(F)cc3)c1)C1CC1)CCCCCC2` [Example 252, (-)-N-[3-[Cyclopropyl(5,6,7,8,9,10-hexahydro4-hydroxy-2-oxo-2H-cycloocta[b]pyran-3-yl)methyl]phenyl]-4-fluoro-benzenesulfonamide], for which, in assay [1], the inhibition at 0.123 µM amounted to 100%, the inhibition at 0.37 µM came out at 108%, the inhibition at 1.1 µM worked out at 111% and the inhibition at 3.3 µM was found to be 112%. In assay [1], the inhibition at 10 µM turned out to be 116% and the inhibition at 30 µM came out at 109%. In addition, the Ki in assay [2] was 1.6 nM and 1.1 nM.
For the molecule `CC(C)(C)OC(=O)N[C@@H](Cc1c[nH]cn1)C(=O)Nc1cccc(C(c2c(O)c3c(oc2=O)CCCCCC3)C2CC2)c1` (single isomer, unassigned) [Example 241, Carbamic acid, [2-[[3-(R or S)-[Cyclopropyl(5,6,7,8,9,10-hexahydro-4-hydroxy-2-oxo-2H-cycloocta[b]pyran-3-yl)methyl]phenyl]amino]-1-(S)-(1H-imidazol-4-ylmethyl)-2-oxoethyl]-, 1,1 dimethyl ethyl ester], the “HIV-1 Protease % Inhib” value in assay [1] (dose 0.123 uM) was 81.78%; in assay [1] (dose 0.370 uM), 91.77%; in assay [1] (dose 1.100 uM) it was 98.65%; in assay [1] (dose 3.300 uM), 101.51%; in assay [1] (dose 10.000 uM), 110.04%; in assay [1] (dose 30.000 uM) it was 104.34%. Further, the Ki in assay [2] is 1.32 nM and 1.9 nM.
Take `O=C(NCc1ccc(C(c2c(O)c3c(oc2=O)CCCCCC3)C2CC2)s1)OCc1ccccc1` (stereo not drawn) [Example 389, 3-(α-Cyclopropyl (5-(N-carbobenzoxy)aminomethyl)thien-2-ylmethyl)-4-hydroxy-5,6,7,8,9,10-hexahydrocycloocta[b]pyran-2-one]: in assay [1], the inhibition at 0.37 µM came to 21.1%, the inhibition at 1.1 µM is 58%, the inhibition at 3.3 µM stood at 78.7% and the inhibition at 10 µM turned out to be 96.4%. Further, the inhibition at 30 µM in assay [1] was determined as 98.7%. Moreover, in assay [2], the inhibition constant Ki amounted to 46.2 nM.
Consider `O=c1oc2c(c(O)c1C(c1cccc(NS(=O)(=O)c3cccc(N4CCCS4(=O)=O)c3)c1)C1CC1)CCCCCC2` (centres unmarked) [Example 357, N-[3-[Cyclopropyl[3-(2-isothiazolidinyl)phenyl]methyl-(5,6,7,8,9,10-hexahydro4-hydroxy-S,S'-dioxide)methyl]phenyl]-3-[(phenylsulfonyl)amino]4-2H-cycloocta[b]pyran2-one], for which, in assay [1], the inhibition at 0.123 µM came to 104%, the inhibition at 0.37 µM was found to be 97.2%, the inhibition at 1.1 µM came out at 101% and the inhibition at 3.3 µM worked out at 98.3%. Moreover, in assay [1], the inhibition at 10 µM was determined as 96.8% and the inhibition at 30 µM was 89.6%. In addition, the inhibition constant Ki in assay [2] was determined as 0.62 nM.
Turning to `O=c1oc2c(c(O)c1C(c1cccc(NS(=O)(=O)c3cc(Br)c(Br)s3)c1)C1CC1)CCCCCC2` (centres unmarked) [Example 303, 4,5-Dibromo-N-[3-[cyclopropyl(5,6,7,8,9,10-hexahydro-4-hydroxy-2-oxo-2H-cycloocta[b]pyran-3-yl)methyl]phenyl]-2-thiophenesulfonamide], in assay [1], the inhibition at 0.123 µM amounted to 67.4%, the inhibition at 0.37 µM was 96.5%, the inhibition at 1.1 µM is 97.7% and the inhibition at 3.3 µM is 109%. Also, in assay [1], the inhibition at 10 µM was 110% and the inhibition at 30 µM was 98%. Besides, the Ki in assay [2] was found to be 5 nM.
On to `CCOC(=O)Nc1cccc(C(c2c(O)c3c(oc2=O)CCCCCC3)C2CC2)c1` (centres unmarked) [Example 226, [3-[Cyclopropyl(5,6,7,8,9,10-hexahydro4-hydroxy-2-oxo-2H-cycloocta[b]pyran-3-yl)methyl]phenyl]-, ethyl ester carbamic acid], for which, in assay [1], the inhibition at 0.123 µM was 14.2%, the inhibition at 0.37 µM is 43.7%, the inhibition at 1.1 µM was 74.1% and the inhibition at 3.3 µM stood at 87.6%. In addition, in assay [1], the inhibition at 10 µM is 101% and the inhibition at 30 µM was 104%. Besides, in assay [2], the Ki was found to be 18.9 nM.
